# Laboratory results from patent publication US7135457B1, “Random peptides that bind to gastro-intestinal tract (GIT) transport receptors and related methods” (Cytogen Corporation, priority 1997, dated 2006).
# Square brackets hold non-standard residues; d marks the D form. Peptide text beside a SMILES is read from it. * marks the point of attachment. Dansyl = CN(C)c1cccc2c(S(=O)(=O)*)cccc12
# Tests used:
# [1] = Peptide stability in simulated intestinal fluid (SIF); type: in vitro ADME; details: rank of relative stability to SIF, 1 = most stable
# Procedure: The relative stability for ZElan031, ZElan053 and ZElan054 was determined in simulated intestinal fluid (SIF) SIF was made by dissolving 100 mg of pancreatin (Sigma cat# P-5 1625, lot# 122H0812) in 8.4 ml of phosphate stock solution, adjusting the pH to 7.5 with 0.2N NaOH and adjusting the volume to 10 ml with water.
# Peptide (3.25 mg) was dissolved in 3.25 ml of 10,000 fold diluted SIF solution at 37° C. Aliquots (0.7 ml) of the digestion solution were then withdrawn at <1 min, 1 h, 3 h, and 21 h or 24 h. The samples were quickly passed through a syringe filter (Millipore Millex-GV 0.22 μm, part# SLGV025LS, lot# H2BM95250) and 300 μL of the filtered solution was immediately injected onto a Hewlett-Packard HPLC system equipped with a C-8 column (Applied Biosystems column and guard column: column-p/n 0711-0023 Spheri-5 ODS 5 μm, 220×4.6 mm). The products were eluted at 1.5 ml/min using an acetonitrile-water gradient. The major fluorescent peaks were collected, lyopholized and identified by MS analysis.
# [2] = test system: P100 fractions harvested from Caco-2 cells; assay: Binding of dansylated peptides to P100 fractions and peptide/particle correlation; details: two consecutive assays; versus scrambled PAX2 control
# Procedure: Binding of peptide and/or peptide-coated PLGA particles to membrane (P100) and cytosolic (S100) fractions was assessed by detection of the dansyl moiety incorporated in the peptide. Costar ninety six well ELISA plates were coated with S100 and P100 fractions (100 μg/ml in 0.05 M NaHCO3) overnight at 4° C. The plates were blocked with 0.5% bovine serum albumin in DPBS for 1 h at room temperature and washed 3 times in 1% BSA-DPBS. Peptide-coated particles or peptides were dispersed in the same buffer and added to the plates at concentrations in the range 0.0325-0.5 mg/well. […] The plates were incubated for 1 h at room temperature. The wells were washed 3 times in 1% BSA-DPBS and 100 μl of goat anti-mouse IgGλ:HRP antibody (Southern Biotechnology 1060-05; 1:10,000) was added per well. The plates were incubated for 1 h at room temperature. After washing 3 times in 1% BSA-DPBS 100 μl of TMB substrate (3,3′,5′,5-tetramethylbenzidine; Microwell Peroxidase Substrate System (Kirkegaard and Perry Laboratories 50-76-00)) was added and the optical density was measured at 650 nm at various time intervals.
# Binding of dansylated peptides to P100 fractions was assessed to determine if peptide binding was predictive of peptide-coated particle binding.
# [3] = test system: P100 membrane fraction derived from Caco-2 cells; assay: GST-PAX2 peptides relative binding to P100 fractions; details: 20 μg/ml; binding to plastic subtracted; GST-HAX42 = 1.00
# Procedure: The peptides and proteins were analyzed by a dansylated peptide ELISA method in which 96 well plates were coated overnight at 4° C. with 100 μl/well coating protein (normally 100 μg/ml P100 membrane fraction) in 0.05M carbonate buffer pH9.6. Nonspecific binding was blocked using 200 μl/well, 2% Marvel/PBS for 2 hours at 37° C. prior to incubation with dansylated peptides. The plates were washed three times with PBS/0.05% Tween 20 and after each subsequent incubation step. […] A buffer blank control was included to ensure that background binding to plastic was not due to the antibodies used in the assay system. […] The plates were then incubated with an anti-mouse λ-HRP conjugated antibody (Southern Biotech 1060-05) at a 1:10,000 dilution in blocking solution, 100 μl/well for 1 hour at room temperature. Plates were developed using 75 μl/well Bionostics TMB substrate and incubated for approximately 10 minutes. The developing reaction was stopped using Bionostics Red Stop solution (25 μl/well), and the optical density of the plates was read at 650 nm.
# After subtraction of the GST-peptide binding to plastic from P100 binding values, the binding of GST-PAX2 peptides were represented as a ratio of GST-HAX42 binding to P100, which was given the arbitrary value of 1.00. The following ratios were determined from binding to P100 of GST-peptides at a peptide concentration of 20 μg/ml. Bold denotes positive binding to the P100 membrane fraction.
# [4] = Crossreactive binding of GST fusions to dansylated peptides; details: for crossreactive binding to ZElan024 (P31) and ZElan018 (PAX2): 0.5 μg/ml GST fusion
# [5] = test system: fixed Caco-2 or C2BBe1 cells; assay: ELISA of GST fusion proteins on fixed Caco-2 or C2BBe1 cells; type: binding; details: Caco-2
# Procedure: Fixed Caco-2, C2BBe1, and A431 cell plates were prepared by growing cells on tissue culture treated microtiter plates. When cells were confluent, plates were fixed with 10% formaldehyde, washed twice with PBS and stored with 0.5% BSA-PBS at −20° C. […] The standard ELISA procedure was followed at this point.
# The standard ELISA procedure was modified as follows. GST proteins were diluted to an appropriate concentration in PBS containing 1% BSA and 0.05% Tween20 (1% BPT), titered and incubated one hour at room temperature. Following five washes an anti-GST monoclonal antibody was added (Sigma, St. Louis Clone GST-2 diluted 1:10,000 in 1% BPT) and incubated one hour. After five more washes goat anti-mouse IgG2b-HRP was added (Southern Biotechnology Associates Inc., Birmingham, Ala., diluted 1:4000 in 1% BPT) and incubated one hour. After five washes plates were developed with TMB peroxidase substrate (Kirkegard and Perry, Gaithersburg, Md.). All data is presented with background binding subtracted.
# [6] = test system: polarized Caco-2 monolayers; assay: Transport and uptake of GST-peptide fusions across/into polarized Caco-2 monolayers (anti-GST ELISA); type: in vitro ADME; details: 100 μg/ml GST fusion
# Procedure: Transport and uptake of GST-peptide fusions and deletion derivatives across cultured polarized Caco-2 monolayers over 4 hours in HBSS buffer was examined using an anti-GST ELISA assay. In another experiment, transport and uptake of GST-peptide fusions and deletion derivatives across cultured polarized Caco-2 monolayers over 24 hours in serum-free medium (SFM) was examined using an anti-GST ELISA assay.
# a) 4 h HBSS study: Transepithelial electrical flux (TER) across the Caco-2 monolayers grown on snapwells (passage 33; 23 days old) was measured to confirm monolayer integrity before beginning the experiment. The medium was removed and the cells were washed once with bHBSS. bHBSS containing 100 μM chloroquine was added and the cells were incubated for 2 h at 37° C. The bHBSS+chloroquine was replaced with 0.5 ml bHBSS containing GST-peptide fusions (100 μg/ml) and the cells were incubated as before. […] At 4 h, TER was measured, the apical medium was sampled and the apical reservoir was washed 6 times with HBSS. […]
# b) 24 h SFM study: Transepithelial electrical flux (TER) across the Caco-2 monolayers grown on snapwells (passage 33; 23 days old) was measured to confirm monolayer integrity before beginning the experiment. […] After 24 hours, TER readings were taken, and samples from the basolateral and apical reservoirs were removed. […]
# fixed Caco-2 cells = assay: Effect of thrombin cleavage on binding of GST-peptide fusions to fixed Caco-2 cells; details: Caco-2
# Procedure: Binding of intact and thrombin-cleaved GST-peptide fusions to fixed Caco-2 cells was compared.
# Thirty micrograms of each GST-peptide was treated with bovine thrombin (1μ/ml; 0.4 NIH units; Sigma CN.T9681) for 18 h at room temperature in 20 mM Tris-HCl pH8.0, 150 mM NaCl, 2.5 mM CaCl2. Controls were similarly treated without addition of thrombin. Ten micrograms of each GST-peptide fusion was removed for PAGE analysis, and 10 μg of fusions were added in duplicate to the fixed Caco-2 cells before 5-fold serial dilutions (1% BPT diluent). The fusions were allowed to bind for 1 h at room temperature. Following 6 washes with 1% BPT, binding was assayed by ELISA.
Molecule,Rel. Stab. [1],Value: binding to P100 as a ratio of GST-HAX42 binding [3],binding to fixed Caco-2 or C2BBe1 cells relative to GST control [5],other results
"C[C@@H](O)[C@H](NC(=O)[C@@H](N)CCCCNS(=O)(=O)c1cccc2c(N(C)C)cccc12)C(=O)N[C@@H](CCCNC(=N)N)C(=O)N[C@@H](CCCCN)C(=O)N[C@@H](CO)C(=O)N[C@@H](CO)C(=O)N[C@H](CCCNC(=N)N)C(=O)N[C@@H](CO)C(=O)N[C@@H](CC(N)=O)C(=O)N1CCC[C@H]1C(=O)N[C@@H](CCCNC(=N)N)C(=O)NCC(=O)N[C@H](CCCNC(=N)N)C(=O)N[C@@H](CCCNC(=N)N)C(=O)N[C@@H](Cc1c[nH]cn1)C(=O)N1CCC[C@H]1C(=O)NCC(N)=O [ZElan054, H2N-K(dns)TRKSSrSNPRGrRHPG-CONH2] (H-K(Dansyl)TRKSS[dR]SNPRG[dR]RHPG-NH2)",2,,,
"C[C@@H](O)[C@H](NC(=O)[C@@H](N)CCCCNS(=O)(=O)c1cccc2c(N(C)C)cccc12)C(=O)N[C@H](CCCNC(=N)N)C(=O)N[C@@H](CCCCN)C(=O)N[C@@H](CO)C(=O)N[C@@H](CO)C(=O)N[C@H](CCCNC(=N)N)C(=O)N[C@@H](CO)C(=O)N[C@@H](CC(N)=O)C(=O)N1CCC[C@H]1C(=O)N[C@H](CCCNC(=N)N)C(=O)NCC(=O)N[C@H](CCCNC(=N)N)C(=O)N[C@H](CCCNC(=N)N)C(=O)N[C@@H](Cc1c[nH]cn1)C(=O)N1CCC[C@H]1C(=O)NCC(N)=O [ZElan053, H2N-K(dns)TrKSSrSNPrGrrHPG-CONH2] (H-K(Dansyl)T[dR]KSS[dR]SNP[dR]G[dR][dR]HPG-NH2)",1,,,binding of dansylated peptide to P100 fractions [2]: binding at the highest dilution only
gst-SDHALGTNLRSDNAKEPGDYNCCGNGNSTGRXVFNRRRPSAIPT [GST-HAX42],,1.00,weak to moderate binding,crossreactivity to ZElan018 (PAX2) and ZElan021 (HAX42) ([4]; 5 μg/ml GST fusion): exhibited crossreactivity
C[C@@H](O)[C@H](NC(=O)[C@@H](N)CCCCNS(=O)(=O)c1cccc2c(N(C)C)cccc12)C(=O)N[C@@H](CCCNC(=N)N)C(=O)N[C@@H](CCCCN)C(=O)N[C@@H](CO)C(=O)N[C@@H](CO)C(=O)N[C@@H](CCCNC(=N)N)C(=O)N[C@@H](CO)C(=O)N[C@@H](CC(N)=O)C(=O)N1CCC[C@H]1C(=O)N[C@@H](CCCNC(=N)N)C(=O)NCC(=O)N[C@@H](CCCNC(=N)N)C(=O)N[C@@H](CCCNC(=N)N)C(=O)N[C@@H](Cc1c[nH]cn1)C(=O)N1CCC[C@H]1C(=O)NCC(N)=O [ZElan031] (H-K(Dansyl)TRKSSRSNPRGRRHPG-NH2),3,,,
gst-SARDSCPAEDGSRAVRLNGVENANTRKSSRSNPRGRRHP [GST-P31],,,bound,"crossreactive binding to ZElan024 (P31) and ZElan018 (PAX2) [4]: no crossreactive binding; transport (flux) across live Caco-2 monolayers, apical to basolateral [6]: higher flux than GST alone"
gst-STPPSREAYSRPYSVDSDSDTNAKHSSHNRRLRTRSRPN [GST-PAX2],,1.79,bound,crossreactive binding to ZElan024 (P31) and ZElan018 (PAX2) [4]: no crossreactive binding
gst-TNAKHSSHNRRLRTRSRPN [GST-106],,2.71,,"effect of thrombin cleavage on detection of binding to fixed Caco-2 cells (fixed Caco-2 cells): significantly reduced; binding of truncated GST fusion compared with full-length, fixed Caco-2 cells [5]: bound similarly to full-length PAX2"
gst-RYKHDIGCDAGVDKKSSSVRGGCGAHSSPPRAGRGPRGTMVSRL [GST-DCX8],,,bound,"effect of thrombin cleavage on detection of binding to fixed Caco-2 cells (fixed Caco-2 cells): significantly reduced; transport (flux) across live Caco-2 monolayers, apical to basolateral [6]: higher flux than GST alone"
